Assay results taken from paper PMC6337512 (Molecules, 2018).
Values after ≈ are worked out from the molar mass of the structure shown.

Assays:
[1] = solutions in culture media RPMI
[2] = Solubility of APIs and THEDES in PBS, excess added, 24 h stirring, UV spectroscopy; type: physicochemical; conditions: aqueous buffer, thermodynamic from solid; PBS (pH 7.4), 37 °C
Procedure: The solubility studies were made with the pure APIs and THEDES. For performing these assays were used a PBS solution, and was added an excess of API and THEDES to this solution, place at 37 °C, under stirring for 24 h, for simulate physiological conditions. The determination of the API solubility was made by UV spectroscopy in 1 mL quartz cuvettes, using a Lambda 35 UV/VIS spectrometer (PerkinElmer, Villepinte, France) and the PerkinElmer UV WinLab software (PerkinElmer, Villepinte, France). […] The calibration curve was made using the respective APIs as standard for quantification.

[3] = Permeability and diffusion in Franz diffusion cells through PES-U membrane

SMILES | pH [1] | solubility at 24 h [2] | Papp at 180 min [3]
N=C(N)NCCC[C@H](N)C(=O)O [L-Arginine, L-arginine] | 10.43 | – | –
CC[C@@H](CO)NCCN[C@@H](CC)CO [Ethambutol, ethambutol] | 6.21 | 4640 ± 70 µg/mL (≈ 22.7 mM) | 819 ± 30.6 ×10⁻⁶ cm/s
